Results taken from patent US11324774B2, “Compositions of oral alkaline salts and metabolic acid inducers and uses thereof” (Augusta University Research Institute, Inc., priority 2018, dated 2022).

Legend:
[1] = 0.1M in drinking water
Description: Urine collection: For urine collection rats were placed in rat metabolic cages for 24 hours (Nalgene, Rochester, N.Y.). Urine was collected and weighed for volume determination. Up to 10 mL of urine was stored at −80° C. for later analysis. All urinary data are presented as 24 hour urinary excretion.
Electrolytes: Urinary Na, K and Cl measurements were obtained using an electrolyte analyzer (Easylite; Medica Co, Bedford Mass.). Samples were diluted 1:10, 1 part urine to 9 parts Easylyte Urine Diluent as per the manufactures instructions.
Rat protocols: Dahl SS rats: All rats were maintained on low salt chow with ad libitum water (tap water). […] Following four days of low salt (LS) feeding, rats were placed on an 8% HS diet (AIN76A 8%; Dyets) for two weeks. 24 hour urine collections were obtained on day 3 of low salt and day 7 and day 14 of high salt feeding if applicable. Following 14 days of HS feeding, rats were anesthetized with isoflurane (2-5%) and tissue harvested for analysis.

[2] = Description: Serum Electrolytes: Blood samples were collected via an intravenous catheter (Nexiva™ Becton Dickinson, Franklin Lakes, N.J.) at baseline and at 60 minute intervals post-treatment to examine changes in serum electrolyte balance (Na, K, and Cl^−).
[3] = system: blood leukocytes (M1, M2 macrophages, TNFα+ neutrophils); details: single 2 g dose
Description: Blood was taken at all time points for all control subjects. No data was excluded from the analysis. Flow cytometric analysis of heparinized whole blood was performed as described previously. Briefly, cells were incubated with antibodies for surface markers (15 minutes on ice in dark) before incubation with antibodies against intracellular cytokines and factors (after permeabilization for 15 minutes using fix/Perm cocktail, eBioscience, San Diego USA) including, CD11b, CD68, TNFα (for M1 macrophages), CD11b, CD68, CD206 and IL-10 (for M2 macrophages) (purchased from BD BioSciences) and CD16 and TNFα (for neutrophils, from eBioscience, USA). Cells were then washed and run through a four-color flow cytometer (FACS Calibur, BD Biosciences), and data were collected using CellQuest software. Samples were double-stained with control IgG and cell markers to assess any spillover signal of fluorochromes. Proper compensation was set to ensure the median fluorescence intensities of negative and positive cells were identical and then was used to gate the population. Gating excluded dead cells and debris using forward and side scatter plots.

[4] = system: TNF-α expressing splenic cells; details: spleens of rats, given orally in drinking solution
Description: To identify and evaluate immune cells in splenic tissues, a flow cytometry-based assay was employed. Buffering capacity and pH were determined by titration of the solutions with HCl.
To identify and evaluate immune cells in splenic tissues, a flow cytometry-based assay was used.

[5] = system: T-regulatory cells (FOXP3+ T-regs), TH17 cells; experiment: Circulating T-regulatory and TH17 cells in rats; format: in vivo
[6] = system: kidney cells (M1/M2 macrophages)
[7] = system: spleen cells (M1/M2 macrophages)
[8] = system: kidney cells (M1/M2 macrophages); details: 4 days
[9] = system: splenic macrophages; details: 3 days, 0.1M in drinking water (unpublished data)
[10] = system: vascular endothelial function; details: in vivo, po
[11] = compared to vehicle (0.1M NaCl)
[12] = healthy rats, 3 days of drinking, 0.1M
[13] = Kidney, 14 Days HS, 0.1M NaHCO3 in drinking water
[14] = Kidney, 3 days LS, 0.1M NaHCO3 in drinking water
[15] = Spleen, 14 Days HS, 0.1M NaHCO3 in drinking water

Compound: O=C([O-])O.[Na+] [NaHCO3, sodium bicarbonate]
- urinary K excretion [1, 11]: no effect
- urinary Na excretion [1, 11]: no effect
- urinary Cl excretion ([1]; compared to vehicle, p=0.03): significantly lower
- serum potassium ([2]; after single 2 g dose): decreased
- Na ([2]; serum, Post-treatment, single 2 g dose in 250 ml water): 140.8 ± 0.5 mmol/L
- M1 macrophages in blood ([3]; 1-3 hours, compared to NaCl, p=0.0004): reduced to a significantly greater degree
- TNFα positive neutrophils in blood ([3]; 1-3 hours, compared to NaCl, p=0.0146): reduced to a significantly greater degree
- percentage of blood leukocytes identified as M2 macrophages ([3]; change from baseline compared to NaCl, p=0.00165): increased
- number of TNF-α (inflammatory) expressing cells [4]: significantly reduced
- anti-inflammatory T-regulatory cells [5, 12]: robust but identical increases
- pro-inflammatory TH17 cells [5, 12]: decreases
- circulating anti-inflammatory T cells (FOXP3+ T-regs) ([5]; rats, 4 days in drinking water): significantly increased
- IL-10 expressing macrophages (M2-polarized macrophages) in the kidney ([6]; 14 days HS): increase
- TNFα expressing macrophages (M1-polarized macrophages) in the kidney ([6]; 14 days HS, p<0.01): decrease
- CD3 (% total kidney) [6, 13]: 1.8 ± 0.3%
- CD4 (% of CD3) [6, 13]: 55 ± 2%
- CD11b/c (% total kidney) [6, 13]: 0.4 ± 0.04%
- CD44 (% of CD3) [6, 13]: 36 ± 5%
- CD69 (% of CD3) [6, 13]: 2.8 ± 0.7%
- FOXP3 (% of CD3/CD4) [6, 13]: 3.3 ± 0.5%
- IL-10 (% of total kidney) [6, 13]: 4.2 ± 0.3%
- IL-17 (% of total kidney) [6, 13]: 0.7 ± 0.1%
- M1 (% of total kidney) [6, 13]: 0.12 ± 0.02%
- M2 (% of total kidney) [6, 13]: 0.2 ± 0.03%
- TNFα (% of total kidney) [6, 13]: 2.0 ± 0.3%
- CD3 [6, 14]: 1.1 ± 0.3%
- CD4 [6, 14]: 54 ± 2%
- CD11b/c [6, 14]: 0.24 ± 0.02%
- CD44 [6, 14]: 52 ± 3%
- CD69 [6, 14]: 0.9 ± 0.3%
- FOXP3 [6, 14]: 2.6 ± 0.5%
- IL-10 [6, 14]: 4.8 ± 0.5%
- IL-17 [6, 14]: 0.4 ± 0.2%
- M1 [6, 14]: 0.16 ± 0.04%
- M2 [6, 14]: 0.36 ± 0.02%
- TNFα [6, 14]: 1.4 ± 0.2%
- effect of NaHCO3 to promote M1 to M2 polarization in the kidney ([6]; after removal of the spleen or manipulation of the spleen to midline, HS diet for 2 weeks): completely abolished
- macrophage polarization in kidney tissue ([6]; low salt fed Dahl SS rats, p=0.007): polarization from predominately M1 to M2
- macrophage polarization with both marker sets ([6]; spleen and kidney, 14 days HS, alternative markers CD68/CD163/CD206): M1 to M2 polarization
- CD3 [7, 15]: 15.3 ± 0.8%
- CD4 [7, 15]: 53 ± 1%
- CD11b/c [7, 15]: 7.3 ± 0.6%
- CD44 [7, 15]: 35 ± 2%
- CD69 [7, 15]: 7.2 ± 0.9%
- FOXP3 [7, 15]: 6 ± 0.5%
- IL-10 [7, 15]: 7.5 ± 0.7%
- IL-17 [7, 15]: 2.8 ± 0.6%
- M1 [7, 15]: 5.8 ± 0.5%
- M2 [7, 15]: 8.3 ± 0.5%
- TNFα [7, 15]: 3 ± 0.5%
- macrophage polarization in splenic tissue ([7]; high salt fed, p=0.005): polarization from predominately M1 to M2
- dose dependence of the effect on polarization ([8]; 0.01M to 0.1M NaHCO3 in drinking water): dose dependent
- lowest NaHCO3 concentration in drinking water with changes in polarization ([8]; low salt laboratory chow): 0.01 M
- macrophage polarization in the kidney ([8]; out-bred Sprague Dawley rats): promote M2 polarization
- M2 macrophages [9]: no effect
- splenic macrophages [9]: increased
- FMD [10]: improves
- FMD/Shear [10]: improves
